Measured values reported in patent publication US20040018158A1, “Topical compositions including sunscreen compositions” (Tend Skin International, Inc., priority 1998, published 2004).

Tests used:
[1] = solubility of acetylsalicylic acid in water; format: physicochemical
Source text: In preparing the composition, it can be helpful to gently warm while stirring the solvent mixture to assist the acetylsalicylic acid in completely dissolving in the solvent mixture. It has been observed that the typical consumer tends to prefer a product that is homogeneous in appearance and without any visible precipitate. […] Thus, aloe vera, for example, while it is soothing to the skin, tends to quickly hydrolyze acetylsalicylic acid. The hydrolysis of the acetylsalicylic acid would substantially and undesirably shorten the shelf life of the product.

[2] = saturation concentration of acetylsalicylic acid in the solvent mixture; format: physicochemical; conditions: solvent mixture: propylene glycol about 10% by volume, glycerine about 2 percent by volume, balance isopropyl alcohol/water solution with isopropyl alcohol about 70% by volume

solubility in water or water based substances [1]: virtually insoluble
saturation concentration of the acetylsalicylic acid in this solvent mixture [2]: about 18 % by weight per unit volume
SMILES: CC(=O)Oc1ccccc1C(=O)O [acetylsalicylic acid]
